A short description of data set [1]: Assessment of chemical stability (RP-HPLC normalized purity). To be noted: for Normalized purity after 7 days, 40° C., pH 4: pH 4, 0.2 mg/ml; for Normalized purity after 7 days, 40° C., pH 4 / Normalized purity after 7 days, 40° C., pH 6 / Normalized purity after 7 days, 40° C., pH 7.5 / Normalized purity after 7 days, 40° C., pH 9: Table 1; for Normalized purity after 7 days, 40° C., pH 6: pH 6, 0.2 mg/ml; for Normalized purity after 7 days, 40° C., pH 7.5: pH 7.5, 0.2 mg/ml; for Normalized purity after 7 days, 40° C., pH 9: pH 9, 0.2 mg/ml. It counts as physicochemical. The essentials:
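Purity after 7 days at 40° C is expressed relative to T=0 (set to 100) for each pH. Samples at 0.2 mg/ml, pH 4, 6, 7.5 or 9, analyzed by RP-HPLC with UV 220 nm on C8 (ammonium formate) or C18 (TFA) gradients.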

Data set [2] has as its target T1, human calcitonin receptor (hCTR2) (Homo sapiens, UniProt P30988).
T1 construct: expressed in transfected cells
T1 sequence (P30988 25-474): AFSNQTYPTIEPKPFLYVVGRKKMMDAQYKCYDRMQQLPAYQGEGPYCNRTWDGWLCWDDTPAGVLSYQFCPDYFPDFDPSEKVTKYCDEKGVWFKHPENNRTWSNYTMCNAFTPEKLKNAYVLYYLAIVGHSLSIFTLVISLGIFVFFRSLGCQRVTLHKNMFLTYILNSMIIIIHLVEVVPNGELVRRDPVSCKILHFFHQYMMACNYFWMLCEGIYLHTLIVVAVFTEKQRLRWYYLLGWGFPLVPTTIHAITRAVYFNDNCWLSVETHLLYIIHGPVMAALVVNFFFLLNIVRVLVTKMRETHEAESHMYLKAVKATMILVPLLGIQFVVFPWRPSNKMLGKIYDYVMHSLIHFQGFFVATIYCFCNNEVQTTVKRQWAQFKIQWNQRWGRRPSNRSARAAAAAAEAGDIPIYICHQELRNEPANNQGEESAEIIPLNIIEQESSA
Put plainly: hCTR2 cAMP assay (AlphaScreen) in COS7 cells. To be noted: cAMP induction, COS7 cells expressing hCTR2; Table 1; read-out: hCTR2 EC50. It is filed as cell-based. The essentials:
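cAMP induction, read by AlphaScreen after lysis, gives EC50 values via 4PL curve fitting. Peptides were applied at rising concentrations for 15 min at 37 °C, with IBMX and 0.1% casein in HEPES-buffered Tyrode pH 7.4, to COS7 cells (no endogenous RAMPs) stably expressing human CTR2.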
On the technique in general: Cyclic AMP is a second messenger, typically raised through Gs and lowered through Gi signalling.

*1 amine or outer side, *2 acyl side, *3 side chain or, on linkers, in order; H or OH if unused. Where a SMILES comes first, the peptide text is derived from it. Bridges are numbered along the chain shown (N, C = ends). [ ]: non-standard residue; d: D form. The star is where a group is joined. C20 diacid = O=C(O)CCCCCCCCCCCCCCCCCCC(=O)*; γGlu = O=C(O)[C@H](CCC(=O)[*:2])N[*:1]; Hyp = O=C(O)[C@@H]1C[C@@H](O)CN1; NMeI = CC[C@H](C)[C@H](NC)C(=O)O; Aad = N[C@@H](CCCC(=O)O)C(=O)O; Sar = CNCC(=O)O

As to `CC[C@H](C)[C@@H](C(=O)N[C@@H](CC(C)C)C(=O)N[C@@H](CO)C(=O)N[C@@H](CO)C(=O)N[C@H](C(=O)N[C@@H](CCC(=O)O)C(=O)N[C@H](C(=O)NCC(=O)N[C@@H](CO)C(=O)N[C@@H](CO)C(=O)N[C@H](C(=O)N1CCC[C@H]1C(N)=O)[C@@H](C)O)C(C)C)[C@@H](C)O)N(C)C(=O)[C@H](C)NC(=O)CN(C)C(=O)[C@H](Cc1ccccc1)NC(=O)[C@H](CO)NC(=O)[C@H](CO)NC(=O)[C@H](CCCNC(=N)N)NC(=O)[C@H](CCC(=O)O)NC(=O)[C@H](CC(C)C)NC(=O)[C@H](Cc1ccccc1)NC(=O)[C@H](Cc1c[nH]cn1)NC(=O)[C@H](C)NC(=O)[C@H](CC(C)C)NC(=O)[C@H](CCCNC(=N)N)NC(=O)[C@H](CCC(=O)O)NC(=O)[C@@H](NC(=O)[C@H](C)NC(=O)[C@@H]1CSSC[C@H](NC(=O)[C@H](CCCNC(=N)N)NC(=O)CC[C@H](NC(=O)CCCCCCCCCCCCCCCCCCC(=O)O)C(=O)O)C(=O)NCC(=O)N[C@@H]([C@@H](C)O)C(=O)N[C@@H](C)C(=O)N[C@@H]([C@@H](C)O)C(=O)N1)[C@@H](C)O` [Compound 36, [19CD]-isoGlu-R-C( )-GTAT-C( )-ATERLAHFLERSSF-Gly(Me)-A-Ile(Me)-LSSTEVGSSTP-NH2] ({C20 diacid-γGlu}-RCGTATCATERLAHFLERSSF[Sar]A[NMeI]LSSTEVGSSTP-NH2; disulfide 2-7), in data set [1], the “Normalized purity after 7 days, 40° C., pH 4” value is given as “A (A = >90%)”; the “Normalized purity after 7 days, 40° C., pH 6” value is listed as “A (A = >90%)”; the “Normalized purity after 7 days, 40° C., pH 7.5” value was “B (B = 70-90%)”; the “Normalized purity after 7 days, 40° C., pH 9” value is recorded as “B (B = 70-90%)”. Further, the EC50 in data set [2] worked out at 0.21 nM.

With `CC[C@H](C)[C@@H](C(=O)N[C@@H](CC(C)C)C(=O)N[C@@H](CO)C(=O)N[C@@H](CO)C(=O)N[C@H](C(=O)N[C@@H](CCC(=O)O)C(=O)N[C@H](C(=O)NCC(=O)N[C@@H](CO)C(=O)NCC(=O)N[C@H](C(=O)N1C[C@H](O)C[C@H]1C(N)=O)[C@@H](C)O)C(C)C)[C@@H](C)O)N(C)C(=O)[C@H](C)NC(=O)CN(C)C(=O)[C@H](Cc1ccccc1)NC(=O)[C@H](CO)NC(=O)[C@H](CO)NC(=O)[C@H](CCCNC(=N)N)NC(=O)[C@H](CCC(N)=O)NC(=O)[C@H](CC(C)C)NC(=O)[C@H](Cc1ccccc1)NC(=O)[C@H](Cc1c[nH]cn1)NC(=O)[C@H](C)NC(=O)[C@H](CC(C)C)NC(=O)[C@H](CCCNC(=N)N)NC(=O)[C@H](CCC(N)=O)NC(=O)[C@@H](NC(=O)[C@H](C)NC(=O)[C@@H]1CSSC[C@H](NC(=O)[C@H](CCCNC(=N)N)NC(=O)CC[C@H](NC(=O)CCCCCCCCCCCCCCCCCCC(=O)O)C(=O)O)C(=O)N[C@@H](CC(N)=O)C(=O)N[C@@H]([C@@H](C)O)C(=O)N[C@@H](C)C(=O)N[C@@H]([C@@H](C)O)C(=O)N1)[C@@H](C)O` [Compound 71, [19CD]-isoGlu-R-C( )-NTAT-C( )-ATQRLAHFLQRSSF-Gly(Me)-A-Ile(Me)-LSSTEVGSGT-Hyp-NH2] ({C20 diacid-γGlu}-RCNTATCATQRLAHFLQRSSF[Sar]A[NMeI]LSSTEVGSGT[Hyp]-NH2; disulfide 2-7), in data set [1], the “Normalized purity after 7 days, 40° C., pH 4” value was “A (A = >90%)”; the “Normalized purity after 7 days, 40° C., pH 6” value is recorded as “A (A = >90%)”; the “Normalized purity after 7 days, 40° C., pH 7.5” value was “A (A = >90%)”; the “Normalized purity after 7 days, 40° C., pH 9” value is “B (B = 70-90%)”. Further, the EC50 in data set [2] is 0.11 nM.

In the case of `CC[C@H](C)[C@@H](C(=O)N[C@@H](CC(C)C)C(=O)N[C@@H](CO)C(=O)N[C@@H](CO)C(=O)N[C@H](C(=O)N[C@@H](CCC(=O)O)C(=O)N[C@H](C(=O)NCC(=O)N[C@@H](CO)C(=O)N[C@@H](CO)C(=O)N[C@H](C(=O)N1C[C@H](O)C[C@H]1C(N)=O)[C@@H](C)O)C(C)C)[C@@H](C)O)N(C)C(=O)[C@H](C)NC(=O)CN(C)C(=O)[C@H](Cc1ccccc1)NC(=O)[C@H](CO)NC(=O)[C@H](CO)NC(=O)[C@H](CCCNC(=N)N)NC(=O)[C@H](CCC(N)=O)NC(=O)[C@H](CC(C)C)NC(=O)[C@H](Cc1ccccc1)NC(=O)[C@H](Cc1c[nH]cn1)NC(=O)[C@H](C)NC(=O)[C@H](CC(C)C)NC(=O)[C@H](CCCNC(=N)N)NC(=O)[C@H](CCC(=O)O)NC(=O)[C@@H](NC(=O)[C@H](C)NC(=O)[C@@H]1CSSC[C@H](NC(=O)[C@H](CCCNC(=N)N)NC(=O)CC[C@H](NC(=O)CCCCCCCCCCCCCCCCCCC(=O)O)C(=O)O)C(=O)NCC(=O)N[C@@H]([C@@H](C)O)C(=O)N[C@@H](C)C(=O)N[C@@H]([C@@H](C)O)C(=O)N1)[C@@H](C)O` [Compound 28, [19CD]-isoGlu-R-C( )-GTAT-C( )-ATERLAHFLQRSSF-Gly(Me)-A-Ile(Me)-LSSTEVGSST-Hyp-NH2] ({C20 diacid-γGlu}-RCGTATCATERLAHFLQRSSF[Sar]A[NMeI]LSSTEVGSST[Hyp]-NH2; disulfide 2-7), in data set [1], the “Normalized purity after 7 days, 40° C., pH 4” value was “A (A = >90%)”; the “Normalized purity after 7 days, 40° C., pH 6” value was “B (B = 70-90%)”; the “Normalized purity after 7 days, 40° C., pH 7.5” value was “B (B = 70-90%)”; the “Normalized purity after 7 days, 40° C., pH 9” value is listed as “B (B = 70-90%)”. For the same compound, in data set [2], the EC50 turned out to be 0.11 nM.

On to `CC[C@H](C)[C@@H](C(=O)N[C@@H](CC(C)C)C(=O)N[C@@H](CO)C(=O)N[C@@H](CO)C(=O)N[C@H](C(=O)N[C@@H](CCC(=O)O)C(=O)N[C@H](C(=O)NCC(=O)N[C@@H](CO)C(=O)N[C@@H](CC(N)=O)C(=O)N[C@H](C(=O)N1C[C@H](O)C[C@H]1C(N)=O)[C@@H](C)O)C(C)C)[C@@H](C)O)N(C)C(=O)[C@H](C)NC(=O)CN(C)C(=O)[C@H](Cc1ccccc1)NC(=O)[C@H](CO)NC(=O)[C@H](CO)NC(=O)[C@H](CCCNC(=N)N)NC(=O)[C@H](CCC(N)=O)NC(=O)[C@H](CC(C)C)NC(=O)[C@H](Cc1ccccc1)NC(=O)[C@H](CCCC(=O)O)NC(=O)[C@H](C)NC(=O)[C@H](CC(C)C)NC(=O)[C@H](CCCNC(=N)N)NC(=O)[C@H](CCC(=O)O)NC(=O)[C@@H](NC(=O)[C@H](C)NC(=O)[C@@H]1CSSC[C@H](NC(=O)[C@H](CCCNC(=N)N)NC(=O)CC[C@H](NC(=O)CCCCCCCCCCCCCCCCCCC(=O)O)C(=O)O)C(=O)NCC(=O)N[C@@H]([C@@H](C)O)C(=O)N[C@@H](C)C(=O)N[C@@H]([C@@H](C)O)C(=O)N1)[C@@H](C)O` [Compound 55, [19CD]-isoGlu-R-C( )-GTAT-C( )-ATERLA-Aad-FLQRSSF-Gly(Me)-A-Ile(Me)-LSSTEVGSNT-Hyp-NH2] ({C20 diacid-γGlu}-RCGTATCATERLA[Aad]FLQRSSF[Sar]A[NMeI]LSSTEVGSNT[Hyp]-NH2; disulfide 2-7), for which, in data set [1], the “Normalized purity after 7 days, 40° C., pH 4” value is “A (A = >90%)”; the “Normalized purity after 7 days, 40° C., pH 6” value is “A (A = >90%)”; the “Normalized purity after 7 days, 40° C., pH 7.5” value is on record as “A (A = >90%)”; the “Normalized purity after 7 days, 40° C., pH 9” value is given as “B (B = 70-90%)”. Moreover, the “Normalized purity pH 4 (Table 5)” value in data set [1] (pH 4, repeat of Example 6 for pairs with/without Asn-Asn at 21-22) was “A (A = >90%)”. The “Normalized purity pH 6 (Table 5)” value in data set [1] (pH 6, repeat of Example 6 for pairs with/without Asn-Asn at 21-22) is “A (A = >90%)”. In data set [1] (pH 7.5, repeat of Example 6 for pairs with/without Asn-Asn at 21-22), the “Normalized purity pH 7.5 (Table 5)” value is “A (A = >90%)”. Besides, the “Normalized purity pH 9 (Table 5)” value in data set [1] (pH 9, repeat of Example 6 for pairs with/without Asn-Asn at 21-22) is on record as “B (B = 70-90%)”. Also, the EC50 in data set [2] is 0.11 nM.

As a reminder, the EC50 is the concentration giving half of the maximal effect.

The values above are taken from patent publication US20210115104A1, “AMYLIN ANALOGUES” (Zealand Pharma A/S, priority 2015, published 2021).
